Measurements reported in paper PMC10165273, “Itch receptor MRGPRX4 interacts with the receptor activity–modifying proteins” (The Journal of Biological Chemistry, 2023).
“And” between values parts separate entries of the source, which are not always exact repeats. Equal values may be shown once. Read-outs that look alike come from different tables or passages of the source.

Biological target: T1, MRGPRX4 + RAMP1 (Homo sapiens, UniProt Q96LA9)
T1 construct: expressed in transfected cells; host or cells: HEK293T
Test: IP1 accumulation, MRGPRX4 coexpressed with RAMP1
Format: cell-based
Parameters: key to IP1 Basal / response to agonist, X4:ramp1.I:1 / response to agonist, X4:ramp1.I:2 / response to agonist, X4:ramp1.I:0.25 / response to agonist, X4:ramp1.I:0.5: % IP1; unstimulated mock = 0%, fully stimulated MRGPRX4 = 100%
Details: for activation at 100 µM / activation at 20 µM / activation at 0.8 µM / activation at […] / activation at 0.032 µM / activation at 4 µM: 2 h, Fig S3d, read-out: IP1 accumulation; for activation at 100 µM: log [DCA] (M) -4; for activation at 20 µM: log [DCA] (M) -4.69897; for activation at 0.8 µM: log [DCA] (M) -6.09691; for activation at […]: log [DCA] (M) -6.79588; for activation at 0.032 µM: log [DCA] (M) -7.49485; for activation at 4 µM: log [DCA] (M) -5.39794
Procedure: HEK293T cells were transfected with 1 pg/cell of MRGPRX4 DNA, and the amount of DNA was kept constant at 2 pg/cell with pcDNA3.1(+) empty vector, unless otherwise specified. Twenty four hours after transfection, IP1 assay was performed as previously described ([51]). When applicable, cells were treated with 1 μM YM254890 (YM) or different concentrations of U73122 for 1 h prior to addition of agonist or buffer. After incubation for 2 h, HTRF reagents and IP1 calibration standards were added and incubated for 2 h in the dark at room temperature. Time-resolved fluorescence signals were read on the BioTek Synergy NEO-TRF Hybrid multi-mode reader (BioTek Instruments). All data were carried out in three independent experiments with three technical replicate each.
For a homogenous transfection of MRGPRX4, a master mix of MRGPRX4 DNA was made prior to addition of the RAMP DNA. […]
Data reduction, standard calibration, and transformation of HTRF data were performed as previously described ([51]). Normalized IP1 values were calculated relative to the unstimulated mock-transfected cells (set to 0%) and fully stimulated MRGPRX4 (alone if applicable) (set to 100%).

T1 sequence (Q96LA9 whole entry): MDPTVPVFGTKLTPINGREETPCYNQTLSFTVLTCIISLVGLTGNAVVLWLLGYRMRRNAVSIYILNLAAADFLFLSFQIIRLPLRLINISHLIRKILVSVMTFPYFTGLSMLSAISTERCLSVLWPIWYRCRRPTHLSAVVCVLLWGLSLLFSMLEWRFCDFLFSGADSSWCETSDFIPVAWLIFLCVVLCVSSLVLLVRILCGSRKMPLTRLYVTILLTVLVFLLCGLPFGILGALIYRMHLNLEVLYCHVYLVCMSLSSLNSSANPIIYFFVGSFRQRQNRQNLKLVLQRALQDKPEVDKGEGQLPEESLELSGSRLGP

**Q.** For C[C@H](CCC(=O)O)[C@H]1CC[C@H]2[C@@H]3CC[C@@H]4C[C@H](O)CC[C@]4(C)[C@H]3C[C@H](O)[C@]12C [DCA, deoxycholic acid], which activation at 100 µM (ratio MRGPRX4:RAMP1 1:0.25) is on record?
**A.** The activation at 100 µM was 91.8%.

**Q.** And the activation at 20 µM (ratio MRGPRX4:RAMP1 1:0.25)?
**A.** Its activation at 20 µM is 80.7%.

**Q.** What about the activation at 0.8 µM (ratio MRGPRX4:RAMP1 1:0.25) of the same compound?
**A.** The activation at 0.8 µM was 27.4%.

**Q.** What about the activation at […] (ratio MRGPRX4:RAMP1 1:0.25) of the same compound?
**A.** Its activation at […] is 30.3%.

**Q.** What about the activation at 0.032 µM (ratio MRGPRX4:RAMP1 1:0.25) of the same compound?
**A.** The activation at 0.032 µM was 28.5%.

**Q.** What about the activation at 100 µM (ratio MRGPRX4:RAMP1 1:0.5) of the same compound?
**A.** Its activation at 100 µM is 103%.

**Q.** What about the activation at 20 µM (ratio MRGPRX4:RAMP1 1:0.5) of the same compound?
**A.** The activation at 20 µM was 62.7%.

**Q.** And the activation at 4 µM (ratio MRGPRX4:RAMP1 1:0.5)?
**A.** The activation at 4 µM was 38.6%.

**Q.** What about the activation at 0.8 µM (ratio MRGPRX4:RAMP1 1:0.5) of the same compound?
**A.** The activation at 0.8 µM was 26.5%.

**Q.** And the activation at […] (ratio MRGPRX4:RAMP1 1:0.5)?
**A.** Its activation at […] is 22.5%.

**Q.** And the activation at 0.032 µM (ratio MRGPRX4:RAMP1 1:0.5)?
**A.** The activation at 0.032 µM was 22.6%.

**Q.** And the activation at 20 µM (ratio MRGPRX4:RAMP1 1:1)?
**A.** Its activation at 20 µM is 61.5%.

**Q.** What about the activation at 4 µM (ratio MRGPRX4:RAMP1 1:1) of the same compound?
**A.** Its activation at 4 µM is 34.6%.

**Q.** And the activation at 0.8 µM (ratio MRGPRX4:RAMP1 1:1)?
**A.** The activation at 0.8 µM was 30.1%.

**Q.** What about the activation at […] (ratio MRGPRX4:RAMP1 1:1) of the same compound?
**A.** Its activation at […] is 22.8%.

**Q.** And the activation at 20 µM (ratio MRGPRX4:RAMP1 1:2)?
**A.** Its activation at 20 µM is 59.4%.

**Q.** And the activation at 4 µM (ratio MRGPRX4:RAMP1 1:2)?
**A.** The activation at 4 µM was 29.7%.

**Q.** And the activation at 0.8 µM (ratio MRGPRX4:RAMP1 1:2)?
**A.** The activation at 0.8 µM was 22%.

**Q.** And the activation at […] (ratio MRGPRX4:RAMP1 1:2)?
**A.** Its activation at […] is 15.8%.

**Q.** And the Emax (Figure 4a bottom, DNA ratio MRGPRX4:RAMP1 1:0.5, MRGPRX4 alone = 100, read-out: efficacy)?
**A.** The Emax was 109%.

**Q.** And the “response to agonist, X4:ramp1.I:0.25” value (Figure 4c-f, agonist 100µM, X4:ramp1 1:0.25, MRGPRX4 = 100)?
**A.** Its value is 100.247 and 94.5976.

**Q.** What about the “response to agonist, X4:ramp1.I:0.5” value (Figure 4c-f, agonist 100µM, X4:ramp1 1:0.5, MRGPRX4 = 100) of the same compound?
**A.** The value was 101.591 and 94.608.

**Q.** And the “response to agonist, X4:ramp1.I:1” value (Figure 4c-f, agonist 100µM, X4:ramp1 1:1, MRGPRX4 = 100)?
**A.** Its value is 97.7538 and 86.0836.

**Q.** And the “response to agonist, X4:ramp1.I:2” value (Figure 4c-f, agonist 100µM, X4:ramp1 1:2, MRGPRX4 = 100)?
**A.** Its value is 90.6013 and 100.616.

**Q.** What about the “IP1 Basal” value (MRGPRX4 + RAMP1 0.25 pg (Fig. S3), normalized per agonist) of the same compound?
**A.** The value was 25.16.

**Q.** What about the Emax (MRGPRX4 + RAMP1 0.25 pg (Fig. S3), normalized per agonist, read-out: IP1 Emax) of the same compound?
**A.** Its Emax is 113%.

**Q.** What about the Emax (MRGPRX4 + RAMP1 0.25 pg (Fig. S3), normalized per agonist, read-out: IP1 span) of the same compound?
**A.** Its Emax is 87.7%.

**Q.** What about the “IP1 Basal” value (MRGPRX4 + RAMP1 0.5 pg (Fig. S3), normalized per agonist) of the same compound?
**A.** Its value is 24.94.

**Q.** What about the Emax (MRGPRX4 + RAMP1 0.5 pg (Fig. S3), normalized per agonist, read-out: IP1 Emax) of the same compound?
**A.** The Emax was 117%.

**Q.** And the Emax (MRGPRX4 + RAMP1 0.5 pg (Fig. S3), normalized per agonist, read-out: IP1 span)?
**A.** The Emax was 92%.

**Q.** What about the “IP1 Basal” value (MRGPRX4 + RAMP1 1 pg (Fig. S3), normalized per agonist) of the same compound?
**A.** Its value is 22.25.

**Q.** And the Emax (MRGPRX4 + RAMP1 1 pg (Fig. S3), normalized per agonist, read-out: IP1 Emax)?
**A.** The Emax was 118%.

**Q.** And the Emax (MRGPRX4 + RAMP1 1 pg (Fig. S3), normalized per agonist, read-out: IP1 span)?
**A.** Its Emax is 95.8%.

**Q.** And the “IP1 Basal” value (MRGPRX4 + RAMP1 2 pg (Fig. S3), normalized per agonist)?
**A.** The value was 17.30.

**Q.** And the Emax (MRGPRX4 + RAMP1 2 pg (Fig. S3), normalized per agonist, read-out: IP1 Emax)?
**A.** Its Emax is 112%.

**Q.** What about the Emax (MRGPRX4 + RAMP1 2 pg (Fig. S3), normalized per agonist, read-out: IP1 span) of the same compound?
**A.** The Emax was 94.5%.
